In US12538924B2, “Pesticidally active heterocyclic derivatives with sulfur containing substituents” (SYNGENTA CROP PROTECTION AG, priority 2019, dated 2026):

Tests used:
Type in all cases: in vivo
[1] = system: Bemisia tabaci (Cotton White Fly); test: Bemisia tabaci (Cotton White Fly): Feeding/Contact Activity; conditions: foliar, 144 h, application rate of 200 ppm, adult white flies on sprayed cotton leaf discs, 6 days after incubation
Description: Example B1: Bemisia tabaci (Cotton White Fly): Feeding/Contact Activity
Cotton leaf discs were placed on agar in 24-well microtiter plates and sprayed with aqueous test solutions prepared from 10'000 ppm DMSO stock solutions. After drying the leaf discs were infested with adult white flies. The samples were checked for mortality 6 days after incubation.

[2] = system: Diabrotica Balteata (Corn Root Worm); test: Diabrotica balteata (Corn Root Worm), sprayed maize sprouts; conditions: 96 h, application rate of 200 ppm, L2 larvae on sprayed maize sprouts, 4 days after infestation, read-out: effect in at least one of the two categories (mortality or growth inhibition)
Description: Example B2: Diabrotica Balteata (Corn Root Worm)
Maize sprouts placed onto an agar layer in 24-well microtiter plates were treated with aqueous test solutions prepared from 10'000 ppm DMSO stock solutions by spraying. After drying, the plates were infested with L2 larvae (6 to 10 per well). The samples were assessed for mortality and growth inhibition in comparison to untreated samples 4 days after infestation.

[3] = system: Plutella xylostella (Diamond Back Moth); test: Plutella xylostella (Diamond Back Moth), treated artificial diet; conditions: 192 h, application rate of 200 ppm, eggs on treated artificial diet, 8 days after infestation, read-out: effect in at least one of the two categories (mortality or growth inhibition)
Description: Example B5: Plutella xylostella (Diamond Back Moth)
24-well microtiter plates with artificial diet were treated with aqueous test solutions prepared from 10'000 ppm DMSO stock solutions by pipetting. After drying, Plutella eggs were pipetted through a plastic stencil onto a gel blotting paper and the plate was closed with it. The samples were assessed for mortality and growth inhibition in comparison to untreated samples 8 days after infestation.

[4] = system: Myzus persicae (Green Peach Aphid); test: Myzus persicae (Green Peach Aphid): Feeding/Contact Activity; conditions: foliar, 144 h, application rate of 200 ppm, aphid population of mixed ages on sprayed sunflower leaf discs, 6 days after infestation
Description: Example B6: Myzus persicae (Green Peach Aphid): Feeding/Contact Activity
Sunflower leaf discs were placed onto agar in a 24-well microtiter plate and sprayed with aqueous test solutions prepared from 10'000 ppm DMSO stock solutions. After drying, the leaf discs were infested with an aphid population of mixed ages. The samples were assessed for mortality 6 days after infestation.

[5] = system: Spodoptera littoralis (Egyptian Cotton Leaf Worm); test: Spodoptera littoralis (Egyptian Cotton Leaf Worm), sprayed cotton leaf discs; conditions: foliar, 72 h, application rate of 200 ppm, L1 larvae on sprayed cotton leaf discs, 3 days after infestation, read-out: control (mortality, anti-feeding effect or growth inhibition)
Description: Example B8: Spodoptera littoralis (Egyptian Cotton Leaf Worm)
Cotton leaf discs were placed onto agar in 24-well microtiter plates and sprayed with aqueous test solutions prepared from 10'000 ppm DMSO stock solutions. After drying the leaf discs were infested with five L1 larvae. The samples were assessed for mortality, anti-feeding effect, and growth inhibition in comparison to untreated samples 3 days after infestation. Control of Spodoptera littoralis by a test sample is given when at least one of the categories mortality, anti-feedant effect, and growth inhibition is higher than the untreated sample.

[6] = system: Euschistus heros (Neotropical Brown Stink Bug); test: Euschistus heros (Neotropical Brown Stink Bug), sprayed soybean leaves; conditions: 120 h, application rate of 200 ppm, N2 nymphs on sprayed soybean leaves, 5 days after infestation, read-out: effect in at least one of the two categories (mortality or growth inhibition)
Description: Example B3: Euschistus heros (Neotropical Brown Stink Bug)
Soybean leaves on agar in 24-well microtiter plates were sprayed with aqueous test solutions prepared from 10'000 ppm DMSO stock solutions. After drying the leaves were infested with N2 nymphs. The samples were assessed for mortality and growth inhibition in comparison to untreated samples 5 days after infestation.

[7] = system: Myzus persicae (Green Peach Aphid); test: Myzus persicae (Green Peach Aphid): Systemic Activity; conditions: 144 h, test rate of 24 ppm, roots of infested pea seedlings placed into test solutions, 6 days
Description: Example B7: Myzus persicae (Green Peach Aphid): Systemic Activity
Roots of pea seedlings infested with an aphid population of mixed ages were placed directly into aqueous test solutions prepared from 10'000 DMSO stock solutions. The samples were assessed for mortality 6 days after placing seedlings into test solutions.

CCS(=O)(=O)c1cc(Br)cnc1N1Cc2cnc(C(F)(F)F)cc2C1=O [Compound P7, 2-(5-bromo-3-ethylsulfonyl-2-pyridyl)-6-(trifluoromethyl)-3H-pyrrolo[3,4-c]pyridin-1-one]
≥ 80%: mortality at 200 ppm [1] | percent effect (mortality or growth inhibition) at 200 ppm [2] | percent effect (mortality or growth inhibition) at 200 ppm [3] | mortality at 200 ppm [4] | percent control (mortality, anti-feedant effect or growth inhibition) at 200 ppm [5]

CCS(=O)(=O)c1cc(C2CC2)cnc1N1Cc2cnc(C(F)(F)F)cc2C1=O [Compound P14, 2-(5-cyclopropyl-3-ethylsulfonyl-2-pyridyl)-6-(trifluoromethyl)-3H-pyrrolo[3,4-c]pyriclin-1-one]
≥ 80%: percent effect (mortality or growth inhibition) at 200 ppm [2] | percent effect (mortality or growth inhibition) at 200 ppm [6] | percent effect (mortality or growth inhibition) at 200 ppm [3] | mortality at 200 ppm [4] | mortality at 24 ppm [7] | percent control (mortality, anti-feedant effect or growth inhibition) at 200 ppm [5]

CCS(=O)(=O)c1ccc(C2CC2)nc1N1Cc2cnc(C(F)(F)F)cc2C1=O [Compound P15, 2-(6-cyclopropyl-3-ethylsulfonyl-2-pyridyl)-6-(trifluoromethyl)-3H-pyrrolo[3,4-c]pyriclin-1-one]
≥ 80%: percent effect (mortality or growth inhibition) at 200 ppm [2] | percent effect (mortality or growth inhibition) at 200 ppm [6] | percent effect (mortality or growth inhibition) at 200 ppm [3] | mortality at 200 ppm [4] | mortality at 24 ppm [7] | percent control (mortality, anti-feedant effect or growth inhibition) at 200 ppm [5]

CCS(=O)(=O)c1ccc(-c2ncccn2)nc1N1Cc2cnc(C(F)(F)F)cc2C1=O [Compound P16, 2-(3-ethylsulfonyl-6-pyrimidin-2-yl-2-pyridyl)-6-(trifluoromethyl)-3H-pyrrolo[3,4-c]pyriclin-1-one]
≥ 80%: percent effect (mortality or growth inhibition) at 200 ppm [2] | percent effect (mortality or growth inhibition) at 200 ppm [6] | percent effect (mortality or growth inhibition) at 200 ppm [3] | mortality at 200 ppm [4] | mortality at 24 ppm [7] | percent control (mortality, anti-feedant effect or growth inhibition) at 200 ppm [5]

CCS(=O)(=O)c1ccc(N2CCOC2=O)nc1N1Cc2cnc(C(F)(F)F)cc2C1=O [Compound P17, 3-[5-ethylsulfonyl-6-[1-oxo-6-(trifluoromethyl)-3H-pyrrolo[3,4-c]pyridin-2-yl]-2-pyridyl]oxazolidin-2-one]
≥ 80%: percent effect (mortality or growth inhibition) at 200 ppm [2] | percent effect (mortality or growth inhibition) at 200 ppm [3] | mortality at 200 ppm [4] | mortality at 24 ppm [7] | percent control (mortality, anti-feedant effect or growth inhibition) at 200 ppm [5]

CCC(=O)N(C)c1ccc(S(=O)(=O)CC)c(N2Cc3cnc(C(F)(F)F)cc3C2=O)n1 [Compound P19, N-[5-ethylsulfonyl-6-[1-oxo-6-(trifluoromethyl)-3H-pyrrolo[3,4-c]pyridin-2-yl]-2-pyridyl]-N-methyl-propanamide]
≥ 80%: percent effect (mortality or growth inhibition) at 200 ppm [2] | percent effect (mortality or growth inhibition) at 200 ppm [6] | percent effect (mortality or growth inhibition) at 200 ppm [3] | mortality at 200 ppm [4] | mortality at 24 ppm [7] | percent control (mortality, anti-feedant effect or growth inhibition) at 200 ppm [5]

CCS(=O)(=O)c1ccc(N(C)C(C)=O)nc1N1Cc2cnc(C(F)(F)F)cc2C1=O [Compound P20, N-[5-ethylsulfonyl-6-[1-oxo-6-(trifluoromethyl)-3H-pyrrolo[3,4-c]pyridin-2-yl]-2-pyridyl]-N-methyl-acetamide]
≥ 80%: percent effect (mortality or growth inhibition) at 200 ppm [2] | percent effect (mortality or growth inhibition) at 200 ppm [6] | percent effect (mortality or growth inhibition) at 200 ppm [3] | mortality at 200 ppm [4] | mortality at 24 ppm [7] | percent control (mortality, anti-feedant effect or growth inhibition) at 200 ppm [5]

CCS(=O)(=O)c1cccnc1N1Cc2ccc(C(F)(F)F)cc2C1=O [Compound P21, 2-(3-ethylsulfonyl-2-pyridyl)-6-(trifluoromethyl)isoindolin-1-one]
≥ 80%: mortality at 200 ppm [1] | percent effect (mortality or growth inhibition) at 200 ppm [2] | percent effect (mortality or growth inhibition) at 200 ppm [6] | percent effect (mortality or growth inhibition) at 200 ppm [3] | mortality at 200 ppm [4] | mortality at 24 ppm [7] | percent control (mortality, anti-feedant effect or growth inhibition) at 200 ppm [5]

CCS(=O)(=O)c1cccnc1N1Cc2ncc(C(F)(F)F)cc2C1=O [Compound P22, 6-(3-ethylsulfonyl-2-pyridyl)-3-(trifluoromethyl)-7H-pyrrolo[3,4-b]pyridin-5-one]
≥ 80%: percent effect (mortality or growth inhibition) at 200 ppm [2] | percent effect (mortality or growth inhibition) at 200 ppm [3] | mortality at 200 ppm [4] | mortality at 24 ppm [7] | percent control (mortality, anti-feedant effect or growth inhibition) at 200 ppm [5]

CCS(=O)(=O)c1cccnc1N1Cc2ccc(OC(F)(F)F)cc2C1=O [Compound P24, 2-(3-ethylsulfonyl-2-pyridyl)-6-(trifluoromethoxy)isoindolin-1-one]
≥ 80%: percent effect (mortality or growth inhibition) at 200 ppm [2] | percent effect (mortality or growth inhibition) at 200 ppm [3] | mortality at 200 ppm [4] | percent control (mortality, anti-feedant effect or growth inhibition) at 200 ppm [5]

CCS(=O)(=O)c1cc(C2(C#N)CC2)cnc1N1Cc2ccc(OC(F)(F)F)cc2C1=O [Compound P25, 1-[5-ethylsulfonyl-6-[1-oxo-6-(trifluoromethoxy)isoindolin-2-yl]-3-pyridyl]cyclopropanecarbonitrile]
≥ 80%: mortality at 200 ppm [1] | percent effect (mortality or growth inhibition) at 200 ppm [2] | percent effect (mortality or growth inhibition) at 200 ppm [6] | percent effect (mortality or growth inhibition) at 200 ppm [3] | mortality at 200 ppm [4] | percent control (mortality, anti-feedant effect or growth inhibition) at 200 ppm [5]

CCS(=O)(=O)c1cc(C2(C#N)CC2)cnc1N1Cc2ccc(C(F)(F)F)cc2C1=O [Compound P26]
≥ 80%: mortality at 200 ppm [1] | percent effect (mortality or growth inhibition) at 200 ppm [2] | percent effect (mortality or growth inhibition) at 200 ppm [6] | percent effect (mortality or growth inhibition) at 200 ppm [3] | mortality at 200 ppm [4] | percent control (mortality, anti-feedant effect or growth inhibition) at 200 ppm [5]

CCS(=O)(=O)c1cc(C(C)(C)C#N)cnc1N1Cc2ncc(C(F)(F)F)cc2C1=O [Compound P27, 2-[5-ethylsulfonyl-6-[5-oxo-3-(trifluoromethyl)-7H-pyrrolo[3,4-b]pyridin-6-yl]-3-pyridyl]-2-methyl-propanenitrile]
≥ 80%: mortality at 200 ppm [1] | percent effect (mortality or growth inhibition) at 200 ppm [2] | percent effect (mortality or growth inhibition) at 200 ppm [3] | mortality at 24 ppm [7] | percent control (mortality, anti-feedant effect or growth inhibition) at 200 ppm [5]
